Reference: article PMC9500072, “Topical application of an irreversible small molecule inhibitor of lysyl oxidases ameliorates skin scarring and fibrosis” (Nature Communications, 2022)
Where “and” joins values, the source holds several entries; their conditions need not be identical. Identical values can stand only once. Like-named read-outs stand apart in the source and are kept apart here.

What was measured:
[1] = target: T1, Human Recombinant SSAO (Homo sapiens, UniProt Q16853); test: Amine oxidase inhibition profile, SSAO; format: biochemical
T1 sequence (Q16853 1-763): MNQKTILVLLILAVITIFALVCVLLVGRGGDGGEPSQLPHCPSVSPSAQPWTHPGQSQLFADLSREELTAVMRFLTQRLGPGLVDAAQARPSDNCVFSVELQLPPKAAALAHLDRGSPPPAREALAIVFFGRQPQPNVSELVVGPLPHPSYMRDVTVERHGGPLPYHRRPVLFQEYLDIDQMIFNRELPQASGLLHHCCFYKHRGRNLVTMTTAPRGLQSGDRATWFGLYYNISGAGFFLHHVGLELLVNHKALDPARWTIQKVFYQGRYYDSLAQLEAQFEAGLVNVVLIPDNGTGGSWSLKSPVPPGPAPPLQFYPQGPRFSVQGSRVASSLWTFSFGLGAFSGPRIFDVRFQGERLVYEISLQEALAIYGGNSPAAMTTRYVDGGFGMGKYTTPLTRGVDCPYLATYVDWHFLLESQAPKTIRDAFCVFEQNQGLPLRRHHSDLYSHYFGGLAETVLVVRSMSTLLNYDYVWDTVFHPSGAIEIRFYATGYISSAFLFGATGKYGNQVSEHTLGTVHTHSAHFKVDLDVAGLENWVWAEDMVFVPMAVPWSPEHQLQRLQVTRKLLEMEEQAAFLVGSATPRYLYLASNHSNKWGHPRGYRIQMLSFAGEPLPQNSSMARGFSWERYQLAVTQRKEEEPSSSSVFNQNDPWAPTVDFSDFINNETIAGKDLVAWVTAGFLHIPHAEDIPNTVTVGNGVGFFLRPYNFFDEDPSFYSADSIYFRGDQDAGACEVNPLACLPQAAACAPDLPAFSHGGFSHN
Source text: (§1) Supplem entary Materi als:
(§2) Supplementary Table S1: Amine oxidase inhibition profile of PXS -4787, PXS-6302 and
(§3) Supplementary Table S2: Perm eability profile of PXS -6302.

[2] = target: T2, Human Recombinant MAO-A (Homo sapiens, UniProt P21397); test: Amine oxidase inhibition profile, MAO-A; format: biochemical
T2 sequence (P21397 1-527): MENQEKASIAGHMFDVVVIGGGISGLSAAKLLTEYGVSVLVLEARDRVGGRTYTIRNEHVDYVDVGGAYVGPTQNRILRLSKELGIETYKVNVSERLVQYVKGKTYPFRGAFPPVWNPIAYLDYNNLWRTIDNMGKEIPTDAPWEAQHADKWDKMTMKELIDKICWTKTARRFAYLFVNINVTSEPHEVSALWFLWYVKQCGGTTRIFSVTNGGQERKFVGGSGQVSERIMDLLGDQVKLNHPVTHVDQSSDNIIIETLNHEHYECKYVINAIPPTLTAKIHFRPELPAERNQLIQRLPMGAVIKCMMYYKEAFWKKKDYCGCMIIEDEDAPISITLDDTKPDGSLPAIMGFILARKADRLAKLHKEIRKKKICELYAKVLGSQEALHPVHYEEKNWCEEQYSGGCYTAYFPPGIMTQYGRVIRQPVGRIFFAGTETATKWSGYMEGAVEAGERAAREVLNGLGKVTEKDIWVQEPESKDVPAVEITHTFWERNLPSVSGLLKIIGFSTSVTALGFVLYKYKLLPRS
Source text: as §1, §2, §3

[3] = target: T3, Human Fibroblast LOX (Homo sapiens, UniProt P28300); test: Amine oxidase inhibition profile, human fibroblast LOX; format: biochemical
T3 construct: Fibroblast LOX; endogenous in cells; host or cells: human fibroblasts
T3 sequence (P28300 169-417): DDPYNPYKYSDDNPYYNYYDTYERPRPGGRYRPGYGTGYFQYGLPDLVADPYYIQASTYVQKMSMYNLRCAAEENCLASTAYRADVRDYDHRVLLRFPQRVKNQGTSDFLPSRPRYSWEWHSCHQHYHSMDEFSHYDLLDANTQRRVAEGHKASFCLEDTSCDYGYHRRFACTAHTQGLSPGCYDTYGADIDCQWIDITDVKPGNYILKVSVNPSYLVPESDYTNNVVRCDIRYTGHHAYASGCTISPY
Procedure: The measurement of the enzymatic activity of all lysyl oxidase family members was based on the detection of hydrogen peroxide with an Amplex-Red oxidation assay, as previously described; miniaturized in 384 well formats, with the appropriate combination of substrate and assay buffer for each individual enzyme. After a 30 min pre-incubation of the enzyme at 37 °C with the test compound (or with different incubation times for the time-dependency assay), one volume of reaction mixture containing 120 μM Amplex Red (AR) (Life Technologies), 1.5 U/mL horseradish peroxidase (HRP) (Sigma-Aldrich) and the specific substrate was added to each sample. The relative fluorescence units (RFU) were then measured every 2.5 min for 30 min at 37 °C, excitation 565 nm and emission 590, on a BMG Clariostar Microplate Reader. All the substrates were used at concentrations corresponding to their Km towards the corresponding enzyme, or with a range of different concentrations for the substrate competition experiments.
Lysyl oxidases assay buffer contained 1.2 M urea, 50 mM sodium borate buffer, pH 8.2 and 100 µM β-aminoproprionitrile (BAPN, Sigma-Aldrich) was used for low control.
as §1, §2, §3

[4] = target: T1, Human Recombinant SSAO; test: Compound oxidation assay (substrate propensity) by SSAO; format: biochemical; details: for Oxidation by SSAO (hydrogen peroxide generated relative to DMSO): single concentration 30 µM
Procedure: For compound oxidation assays, the amount of hydrogen peroxide generated at a single concentration (30 µM) of compound relative to DMSO was measured.
Data are expressed as mean ± SEM. Subsequent statistical analysis was performed with unpaired two-sided Student’s t tests. *p < 0.05, **p < 0.01, ***p < 0.001and ****p < 0.0001. Source data are provided as a Source Data file.
This assay determines the substrate propensity of a compound relative to background (dimethyl sulfoxide only). Compound oxidation by rhSSAO was measured by fluorometric assay. Briefly, rhSSAO was incubated for 2 h at 37 °C in HEPES buffer before the addition of an equal volume of Amplex Red ([…]), horseradish peroxidase (4 U/ml), and test compound in the same buffer. The kinetics of the formation of resorufin was measured immediately using Optima reader (BMG Labtech GmbH, Ortenburg, Germany), at 37 °C.

[5] = target: Muscarinic M2 (Homo sapiens, UniProt P08172); test: Eurofins panel 252710; format: binding
Sequence of Muscarinic M2 (P08172 whole entry): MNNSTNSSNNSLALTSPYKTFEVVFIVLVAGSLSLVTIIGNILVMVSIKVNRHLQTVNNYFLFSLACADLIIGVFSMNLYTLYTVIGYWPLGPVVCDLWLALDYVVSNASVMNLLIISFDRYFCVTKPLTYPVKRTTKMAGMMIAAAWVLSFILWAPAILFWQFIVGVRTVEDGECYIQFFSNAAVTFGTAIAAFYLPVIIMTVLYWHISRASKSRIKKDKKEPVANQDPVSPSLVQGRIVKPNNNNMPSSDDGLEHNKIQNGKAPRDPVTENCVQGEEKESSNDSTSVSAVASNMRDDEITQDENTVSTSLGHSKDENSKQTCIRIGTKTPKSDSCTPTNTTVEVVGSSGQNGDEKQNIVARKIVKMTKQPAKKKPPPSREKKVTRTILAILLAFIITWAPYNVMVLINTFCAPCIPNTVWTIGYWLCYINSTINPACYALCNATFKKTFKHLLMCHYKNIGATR

[6] = target: Adrenergic β1 (Homo sapiens, UniProt P08588); test: Eurofins panel 204010; format: binding
Sequence of Adrenergic β1 (P08588 whole entry): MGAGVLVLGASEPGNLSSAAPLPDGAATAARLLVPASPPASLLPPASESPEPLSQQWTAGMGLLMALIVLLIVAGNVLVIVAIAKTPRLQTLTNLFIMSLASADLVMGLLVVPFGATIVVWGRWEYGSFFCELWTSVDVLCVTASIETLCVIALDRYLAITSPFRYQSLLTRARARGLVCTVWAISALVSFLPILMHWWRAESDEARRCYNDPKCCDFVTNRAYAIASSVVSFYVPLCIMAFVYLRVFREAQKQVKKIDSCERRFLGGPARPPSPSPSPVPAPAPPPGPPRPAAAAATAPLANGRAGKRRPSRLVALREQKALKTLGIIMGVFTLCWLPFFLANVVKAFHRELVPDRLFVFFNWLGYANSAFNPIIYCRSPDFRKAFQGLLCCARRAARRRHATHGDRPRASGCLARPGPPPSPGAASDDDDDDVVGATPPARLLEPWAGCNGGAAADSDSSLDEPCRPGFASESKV

[7] = target: Glucocorticoid (Homo sapiens, UniProt P04150); test: Eurofins panel 232030; format: binding
Sequence of Glucocorticoid (P04150 whole entry): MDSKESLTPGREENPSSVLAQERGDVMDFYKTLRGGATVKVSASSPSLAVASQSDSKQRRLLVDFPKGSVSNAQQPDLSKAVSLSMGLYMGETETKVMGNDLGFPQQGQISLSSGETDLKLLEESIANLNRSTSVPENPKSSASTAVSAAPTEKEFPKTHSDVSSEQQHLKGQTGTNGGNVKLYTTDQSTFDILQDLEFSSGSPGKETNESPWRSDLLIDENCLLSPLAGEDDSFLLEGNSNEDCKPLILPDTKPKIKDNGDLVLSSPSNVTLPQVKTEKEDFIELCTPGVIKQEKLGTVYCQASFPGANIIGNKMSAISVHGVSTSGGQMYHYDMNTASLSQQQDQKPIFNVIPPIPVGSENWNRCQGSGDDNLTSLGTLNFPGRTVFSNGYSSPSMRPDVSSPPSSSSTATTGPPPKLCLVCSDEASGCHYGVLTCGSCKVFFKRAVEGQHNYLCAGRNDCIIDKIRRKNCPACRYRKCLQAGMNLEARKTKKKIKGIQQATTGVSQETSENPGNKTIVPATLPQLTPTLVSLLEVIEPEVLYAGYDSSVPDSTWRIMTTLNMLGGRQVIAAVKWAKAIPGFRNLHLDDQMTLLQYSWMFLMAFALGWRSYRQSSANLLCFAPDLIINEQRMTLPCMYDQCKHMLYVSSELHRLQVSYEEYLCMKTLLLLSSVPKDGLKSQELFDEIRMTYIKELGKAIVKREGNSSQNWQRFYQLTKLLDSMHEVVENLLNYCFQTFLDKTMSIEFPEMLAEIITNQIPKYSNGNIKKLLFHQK

[8] = target: Opiate δ1 (OP1, DOP) (Homo sapiens, UniProt P41143); test: Eurofins panel 260130; format: binding
Sequence of Opiate δ1 (OP1, DOP) (P41143 whole entry): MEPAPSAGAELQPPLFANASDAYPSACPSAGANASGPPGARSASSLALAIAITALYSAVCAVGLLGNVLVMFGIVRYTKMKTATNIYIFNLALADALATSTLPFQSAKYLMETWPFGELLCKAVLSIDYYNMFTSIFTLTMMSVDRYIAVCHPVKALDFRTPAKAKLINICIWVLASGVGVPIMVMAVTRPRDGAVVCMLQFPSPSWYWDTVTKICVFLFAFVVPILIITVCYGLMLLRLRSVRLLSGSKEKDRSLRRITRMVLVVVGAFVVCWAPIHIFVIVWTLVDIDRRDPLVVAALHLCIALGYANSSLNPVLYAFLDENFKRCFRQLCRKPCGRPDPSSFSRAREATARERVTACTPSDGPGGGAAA

[9] = target: Adenosine A2A (Homo sapiens, UniProt P29274); test: Eurofins panel 200610; format: binding
Sequence of Adenosine A2A (P29274 whole entry): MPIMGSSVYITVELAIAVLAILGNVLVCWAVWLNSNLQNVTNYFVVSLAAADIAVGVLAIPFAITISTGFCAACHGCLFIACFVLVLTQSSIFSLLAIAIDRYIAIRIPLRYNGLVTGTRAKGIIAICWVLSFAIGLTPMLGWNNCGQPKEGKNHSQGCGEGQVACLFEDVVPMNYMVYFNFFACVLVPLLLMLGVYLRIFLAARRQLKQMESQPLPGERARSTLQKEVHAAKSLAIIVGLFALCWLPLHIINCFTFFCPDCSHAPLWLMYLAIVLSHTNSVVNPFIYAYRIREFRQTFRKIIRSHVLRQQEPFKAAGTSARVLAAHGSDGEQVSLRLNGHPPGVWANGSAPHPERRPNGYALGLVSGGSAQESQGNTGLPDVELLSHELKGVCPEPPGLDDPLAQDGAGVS

[10] = read-out: Recombinant SSAO IC50
[11] = read-out: Recombinant MAO-A IC50
[12] = read-out: Human Fibroblast LOX IC50

## N#CCCN [BAPN, β-aminoproprionitrile, reference compound]
[1]
  Recombinant SSAO pIC50: < 4
[1]; [10]
  IC50: > 100 µM
[2]
  Recombinant MAO-A pIC50: < 4.5
[2]; [11]
  IC50: > 30 µM
[3]
  Human Fibroblast LOX pIC50±SD: 5.5 ± 0.1
[3]; [12]
  IC50: 3.04 µM
[4]; 30
  SSAO specificity (Fig 2F), oxidation, individual experiments: 1.24 and 1.43 and 1.55 and 1.3 and 1.39
[4]; 60
  SSAO specificity (Fig 2F), oxidation, individual experiments: 2.24 and 2.72 and 2.02 and 1.5 and 1.72
[4]; 90
  SSAO specificity (Fig 2F), oxidation, individual experiments: 4.91 and 2.48 and 2.66 and 3.66

## NC/C=C(\F)CS(=O)(=O)c1ccccc1 [PXS-4787]
[5]; 10 µM
  inhibition at 10 µM: 7%
[6]; 10 µM
  inhibition at 10 µM: -3%
[1]; [10]
  IC50: > 100 µM
[2]; [11]
  IC50: > 30 µM
[7]; 10 µM
  inhibition at 10 µM: 3%
[3]; [12]
  IC50: 5.19 µM
[4]
  Oxidation by SSAO (hydrogen peroxide generated relative to DMSO): 1.3
[8]; 10 µM
  inhibition at 10 µM: 5%
[9]; 10 µM
  inhibition at 10 µM: 15%

## NC/C=C(\F)C(F)(F)S(=O)(=O)c1ccccc1 [PXS-6302]
[5]; read-out: % Inh.
  inhibition at 30 µM: 16%
[6]; read-out: % Inh.
  inhibition at 30 µM: 4%
[1]
  IC50: > 30 µM
[2]
  IC50: > 30 µM
[7]; read-out: % Inh.
  inhibition at 30 µM: 13%
[3]; [12]
  IC50: 4.51 µM
[3]; read-out: Human Fibroblast LOX pIC50±SD (converted)
  IC50: 3.98 µM
[4]; 30
  SSAO specificity (Fig 2F), oxidation, individual experiments: 1.48 and 1.33 and 1.2 and 1.19 and 1.18 and 1.24 and 1.1 and 1.3 and 1.37 and 1.13 and 1.23
[4]; 60
  SSAO specificity (Fig 2F), oxidation, individual experiments: 1.4 and 1.33 and 1.41
[4]; 90
  SSAO specificity (Fig 2F), oxidation, individual experiments: 1.53 and 2.99 and 4.36
[4]
  Oxidation by SSAO (hydrogen peroxide generated relative to DMSO): 1.3
[8]; read-out: % Inh.
  inhibition at 30 µM: 26%
[9]; read-out: % Inh.
  inhibition at 30 µM: -6%
